{
  "source": "PubChem BioAssay AID1745844",
  "about": "(Carcinogenic Potency Database (CPDB), 2022)",
  "tested_on": "rodent lifetime carcinogenesis bioassay, tumor incidence TD50",
  "assay": "chronic cancer bioassays in animals – CPDB, compiled studies (AID 1745844)",
  "details": "mouse, study length 104 weeks",
  "note": "The source made the active and inactive calls. How the calls were made is not given here.",
  "data": [
    {"molecule": "ClCCl", "values": [
      {"measurement": "TD50", "setting": "strain B6C3F1, females, inhaled, site: any site (literature study), lesion: several types, types named in the paper, dosed 102 weeks", "result": 1020, "unit": "mg/kg/day"},
      {"measurement": "TD50", "setting": "strain B6C3F1, females, inhaled, site: liver + lung, lesion: hepatocellular adenoma + hepatocellular carcinoma + alveolar/bronchiolar adenoma + alveolar/bronchiolar carcinoma, dosed 102 weeks", "result": 817, "unit": "mg/kg/day"},
      {"measurement": "TD50", "setting": "strain B6C3F1, females, inhaled, site: liver, lesion: hepatocellular adenoma + hepatocellular carcinoma + neoplastic nodule, dosed 102 weeks", "result": 1430, "unit": "mg/kg/day"},
      {"measurement": "TD50", "setting": "strain B6C3F1, females, inhaled, site: liver, lesion: hepatocellular adenoma + hepatocellular carcinoma, dosed 102 weeks", "result": 1430, "unit": "mg/kg/day"},
      {"measurement": "TD50", "setting": "strain B6C3F1, females, inhaled, site: liver, lesion: hepatocellular adenoma, dosed 26 weeks", "result": 2570, "unit": "mg/kg/day"},
      {"measurement": "TD50", "setting": "strain B6C3F1, females, inhaled, site: liver, lesion: hepatocellular adenoma, dosed 52 weeks", "result": 6250, "unit": "mg/kg/day"},
      {"measurement": "TD50", "setting": "strain B6C3F1, females, inhaled, site: liver, lesion: hepatocellular adenoma, dosed 78 weeks", "result": 2780, "unit": "mg/kg/day"},
      {"measurement": "TD50", "setting": "strain B6C3F1, females, inhaled, site: liver, lesion: hepatocellular adenoma, dosed 102 weeks", "result": 3170, "unit": "mg/kg/day"},
      {"measurement": "TD50", "setting": "strain B6C3F1, females, inhaled, site: liver, lesion: hepatocellular adenoma, dosed 104 weeks", "result": 4860, "unit": "mg/kg/day"},
      {"measurement": "TD50", "setting": "strain B6C3F1, females, inhaled, site: liver, lesion: hepatocellular carcinoma, dosed 26 weeks", "result": 6790, "unit": "mg/kg/day"},
      {"measurement": "TD50", "setting": "strain B6C3F1, females, inhaled, site: liver, lesion: hepatocellular carcinoma, dosed 52 weeks", "result": 4960, "unit": "mg/kg/day"},
      {"measurement": "TD50", "setting": "strain B6C3F1, females, inhaled, site: liver, lesion: hepatocellular carcinoma, dosed 78 weeks", "result": 4020, "unit": "mg/kg/day"},
      {"measurement": "TD50", "setting": "strain B6C3F1, females, inhaled, site: liver, lesion: hepatocellular carcinoma, dosed 102 weeks", "result": 1850, "unit": "mg/kg/day"},
      {"measurement": "TD50", "setting": "strain B6C3F1, females, inhaled, site: liver, lesion: hepatocellular carcinoma, dosed 104 weeks", "result": 2750, "unit": "mg/kg/day"},
      {"measurement": "TD50", "setting": "strain B6C3F1, females, inhaled, site: liver, lesion: several types, types named in the paper, dosed 26 weeks", "result": 1840, "unit": "mg/kg/day"},
      {"measurement": "TD50", "setting": "strain B6C3F1, females, inhaled, site: liver, lesion: several types, types named in the paper, dosed 52 weeks", "result": 2850, "unit": "mg/kg/day"},
      {"measurement": "TD50", "setting": "strain B6C3F1, females, inhaled, site: liver, lesion: several types, types named in the paper, dosed 78 weeks", "result": 1730, "unit": "mg/kg/day"},
      {"measurement": "TD50", "setting": "strain B6C3F1, females, inhaled, site: liver, lesion: several types, types named in the paper, dosed 104 weeks", "result": 1740, "unit": "mg/kg/day"},
      {"measurement": "TD50", "setting": "strain B6C3F1, females, inhaled, site: lung, lesion: adenoma, dosed 26 weeks", "result": 3400, "unit": "mg/kg/day"},
      {"measurement": "TD50", "setting": "strain B6C3F1, females, inhaled, site: lung, lesion: adenoma, dosed 52 weeks", "result": 3810, "unit": "mg/kg/day"},
      {"measurement": "TD50", "setting": "strain B6C3F1, females, inhaled, site: lung, lesion: adenoma, dosed 78 weeks", "result": 3590, "unit": "mg/kg/day"},
      {"measurement": "TD50", "setting": "strain B6C3F1, females, inhaled, site: lung, lesion: alveolar/bronchiolar adenoma + alveolar/bronchiolar carcinoma, dosed 102 weeks", "result": 917, "unit": "mg/kg/day"},
      {"measurement": "TD50", "setting": "strain B6C3F1, females, inhaled, site: lung, lesion: alveolar/bronchiolar adenoma, dosed 102 weeks", "result": 1420, "unit": "mg/kg/day"},
      {"measurement": "TD50", "setting": "strain B6C3F1, females, inhaled, site: lung, lesion: alveolar/bronchiolar adenoma, dosed 104 weeks", "result": 5020, "unit": "mg/kg/day"},
      {"measurement": "TD50", "setting": "strain B6C3F1, females, inhaled, site: lung, lesion: alveolar/bronchiolar carcinoma, dosed 102 weeks", "result": 1690, "unit": "mg/kg/day"},
      {"measurement": "TD50", "setting": "strain B6C3F1, females, inhaled, site: lung, lesion: alveolar/bronchiolar carcinoma, dosed 104 weeks", "result": 2670, "unit": "mg/kg/day"},
      {"measurement": "TD50", "setting": "strain B6C3F1, females, inhaled, site: lung, lesion: carcinoma, dosed 26 weeks", "result": 1650, "unit": "mg/kg/day"},
      {"measurement": "TD50", "setting": "strain B6C3F1, females, inhaled, site: lung, lesion: carcinoma, dosed 52 weeks", "result": 952, "unit": "mg/kg/day"},
      {"measurement": "TD50", "setting": "strain B6C3F1, females, inhaled, site: lung, lesion: carcinoma, dosed 78 weeks", "result": 2830, "unit": "mg/kg/day"},
      {"measurement": "TD50", "setting": "strain B6C3F1, females, inhaled, site: lung, lesion: several types, types named in the paper, dosed 26 weeks", "result": 1280, "unit": "mg/kg/day"},
      {"measurement": "TD50", "setting": "strain B6C3F1, females, inhaled, site: lung, lesion: several types, types named in the paper, dosed 52 weeks", "result": 804, "unit": "mg/kg/day"},
      {"measurement": "TD50", "setting": "strain B6C3F1, females, inhaled, site: lung, lesion: several types, types named in the paper, dosed 78 weeks", "result": 1520, "unit": "mg/kg/day"},
      {"measurement": "TD50", "setting": "strain B6C3F1, females, inhaled, site: lung, lesion: several types, types named in the paper, dosed 104 weeks", "result": 1650, "unit": "mg/kg/day"},
      {"measurement": "TD50", "setting": "strain B6C3F1, females, inhaled, site: thyroid gland, lesion: follicular-cell adenoma, dosed 102 weeks", "result": 15800, "unit": "mg/kg/day"},
      {"measurement": "TD50", "setting": "strain B6C3F1, males, in drinking water, site: liver, lesion: hepatocellular adenoma, dosed 104 weeks", "result": "2900 mg/kg/day (inactive)"},
      {"measurement": "TD50", "setting": "strain B6C3F1, males, in drinking water, site: liver, lesion: hepatocellular carcinoma, dosed 104 weeks", "result": "2350 mg/kg/day (inactive)"},
      {"measurement": "TD50", "setting": "strain B6C3F1, males, in drinking water, site: liver, lesion: several types, types named in the paper, dosed 104 weeks", "result": "1310 mg/kg/day (inactive)"},
      {"measurement": "carcinogen call", "setting": "strain B6C3F1, males, in drinking water, site: thyroid gland, lesion: one or several types, types not named, dosed 104 weeks", "result": "negative (inactive)"},
      {"measurement": "TD50", "setting": "strain B6C3F1, males, inhaled, site: all sites, lesion: hemangioma + hemangiosarcoma, dosed 102 weeks", "result": 13200, "unit": "mg/kg/day"},
      {"measurement": "TD50", "setting": "strain B6C3F1, males, inhaled, site: all sites, lesion: hemangiosarcoma, dosed 102 weeks", "result": 12900, "unit": "mg/kg/day"},
      {"measurement": "TD50", "setting": "strain B6C3F1, males, inhaled, site: any site (literature study), lesion: several types, types named in the paper, dosed 102 weeks", "result": 1160, "unit": "mg/kg/day"},
      {"measurement": "TD50", "setting": "strain B6C3F1, males, inhaled, site: liver + lung, lesion: hepatocellular adenoma + hepatocellular carcinoma + alveolar/bronchiolar adenoma + alveolar/bronchiolar carcinoma, dosed 102 weeks", "result": 1090, "unit": "mg/kg/day"},
      {"measurement": "TD50", "setting": "strain B6C3F1, males, inhaled, site: liver, lesion: hepatocellular adenoma + hepatocellular carcinoma + neoplastic nodule, dosed 102 weeks", "result": 1800, "unit": "mg/kg/day"},
      {"measurement": "TD50", "setting": "strain B6C3F1, males, inhaled, site: liver, lesion: hepatocellular adenoma + hepatocellular carcinoma, dosed 102 weeks", "result": 1800, "unit": "mg/kg/day"},
      {"measurement": "TD50", "setting": "strain B6C3F1, males, inhaled, site: liver, lesion: hepatocellular adenoma, dosed 102 weeks", "result": 3480, "unit": "mg/kg/day"},
      {"measurement": "TD50", "setting": "strain B6C3F1, males, inhaled, site: liver, lesion: hepatocellular carcinoma, dosed 102 weeks", "result": 2690, "unit": "mg/kg/day"},
      {"measurement": "TD50", "setting": "strain B6C3F1, males, inhaled, site: lung, lesion: alveolar/bronchiolar adenoma + alveolar/bronchiolar carcinoma, dosed 102 weeks", "result": 920, "unit": "mg/kg/day"},
      {"measurement": "TD50", "setting": "strain B6C3F1, males, inhaled, site: lung, lesion: alveolar/bronchiolar adenoma, dosed 102 weeks", "result": 1680, "unit": "mg/kg/day"},
      {"measurement": "TD50", "setting": "strain B6C3F1, males, inhaled, site: lung, lesion: alveolar/bronchiolar carcinoma, dosed 102 weeks", "result": 1710, "unit": "mg/kg/day"},
      {"measurement": "TD50", "setting": "strain Swiss, females, by gavage, site: lung, lesion: adenoma, dosed 64 weeks", "result": 7050, "unit": "mg/kg/day"},
      {"measurement": "TD50", "setting": "strain Swiss, males, by gavage, site: lung, lesion: adenoma, dosed 64 weeks", "result": 916, "unit": "mg/kg/day"}
    ]}
  ]
}
